Common to all, as to format: functional, Stomach
Assay [1] concerns Rattus norvegicus. As to the kind of experiment: Antiulcer activity in Wistar Rattus norvegicus (rat) assessed as decrease in total acidity of gastric secretions at 0.1158 mM/kg, po administered 1 hr prior to pylorous ligation measured after 19 hr by titRattus norvegicus (rat)ion assay relative to untreated control. Also on record: scale not given: the % may be the effect or the level left.

Assay [2] relates to Rattus norvegicus. As to the kind of experiment: Antiulcer activity in Wistar Rattus norvegicus (rat) assessed as decrease in total acidity of gastric secretions at 0.0579 mM/kg, po administered 1 hr prior to pylorous ligation measured after 19 hr by titRattus norvegicus (rat)ion assay relative to untreated control. Also on record: scale not given: the % may be the effect or the level left.

In assay [3] the test system is Rattus norvegicus. Briefly: Antiulcer activity in Wistar Rattus norvegicus (rat) assessed as decrease in total acidity of gastric secretions at 0.0289 mM/kg, po administered 1 hr prior to pylorous ligation measured after 19 hr by titRattus norvegicus (rat)ion assay relative to untreated control. Also on record: scale not given: the % may be the effect or the level left.

The subject of assay [4] is Rattus norvegicus. Briefly: Antiulcer activity in Wistar Rattus norvegicus (rat) assessed as increase in pH of gastric secretions at 0.1158 mM/kg, po administered 1 hr prior to pylorous ligation measured after 19 hr by digital pH metric analysis relative to untreated control.
The subject of assay [5] is Rattus norvegicus. As to the kind of experiment: Antiulcer activity in Wistar Rattus norvegicus (rat) assessed as increase in pH of gastric secretions at 0.0579 mM/kg, po administered 1 hr prior to pylorous ligation measured after 19 hr by digital pH metric analysis relative to untreated control.
Assay [6] relates to Rattus norvegicus. Briefly: Antiulcer activity in Wistar Rattus norvegicus (rat) assessed as change in pH of gastric secretions at 0.0289 mM/kg, po administered 1 hr prior to pylorous ligation measured after 19 hr by digital pH metric analysis relative to untreated control.
Assay [7] relates to Rattus norvegicus. As to the kind of experiment: Antiulcer activity in Wistar Rattus norvegicus (rat) assessed as decrease in total volume of gastric secretions at 0.1158 mM/kg, po administered 1 hr prior to pylorous ligation measured after 19 hr relative to untreated control. Also on record: scale not given: the % may be the effect or the level left.
For assay [8], the system named is Rattus norvegicus. Briefly: Antiulcer activity in Wistar Rattus norvegicus (rat) assessed as decrease in total volume of gastric secretions at 0.0579 mM/kg, po administered 1 hr prior to pylorous ligation measured after 19 hr relative to untreated control. Also on record: scale not given: the % may be the effect or the level left.
Assay [9] deals with Rattus norvegicus. As to the kind of experiment: Antiulcer activity in Wistar Rattus norvegicus (rat) assessed as decrease in total volume of gastric secretions at 0.0289 mM/kg, po administered 1 hr prior to pylorous ligation measured after 19 hr relative to untreated control. Also noted: scale not given: the % may be the effect or the level left.

As for `COc1nc(C[S+]([O-])c2nc3ccccc3[nH]2)nc2sc3c(c12)CCCC3` (configuration not stated), the Activity amounted to 39.27% with Rattus norvegicus [1]; 37.69% with Rattus norvegicus [2]; 24.15% in the assay on Rattus norvegicus [3]; 23.55% in the assay on Rattus norvegicus [4]; 17.33% in the assay on Rattus norvegicus [5]; 6.65% with Rattus norvegicus [6]. Also, the Activity with Rattus norvegicus [7] is given as 50%; with Rattus norvegicus [8], 51.06%; in the assay with Rattus norvegicus [9], 23.93%.

Consider `[O-][S+](Cc1nc(OCC(F)(F)F)c2c3c(sc2n1)CCCC3)c1nc2ccccc2[nH]1` (configuration not stated), for which the Activity in the assay on Rattus norvegicus [1] came to 52.14%; in the assay on Rattus norvegicus [2], 38.14%; in the assay with Rattus norvegicus [3] it was 27.08%; in the assay on Rattus norvegicus [4], 14.13%; in the assay on Rattus norvegicus [5], 6.28%; with Rattus norvegicus [6], 5.45%. The Activity with Rattus norvegicus [7] was 34.57%; in the assay on Rattus norvegicus [8], 29.78%; with Rattus norvegicus [9], 60.1%.

Consider `COc1ccc2[nH]c([S+]([O-])Cc3nc(OC)c4c5c(sc4n3)CCCC5)nc2c1` (configuration not stated), for which the Activity in the assay on Rattus norvegicus [1] is 50.33%; in the assay with Rattus norvegicus [2], 33.86%; in the assay on Rattus norvegicus [3] it was 29.57%; in the assay with Rattus norvegicus [4] it was 10.33%; in the assay with Rattus norvegicus [5] it was 9.05%; with Rattus norvegicus [6], 1.44%. For the same molecule, the Activity in the assay on Rattus norvegicus [7] came out at 57.71%; in the assay on Rattus norvegicus [8], 77.39%; in the assay on Rattus norvegicus [9], 69.94%.

Turning to `COc1nc(C[S+]([O-])c2nc3ccccc3[nH]2)nc2scc(-c3ccccc3)c12` (configuration not stated), the Activity worked out at 36.79% in the assay on Rattus norvegicus [1]; 25.28% in the assay on Rattus norvegicus [2]; 23.92% in the assay with Rattus norvegicus [3]; 9.91% with Rattus norvegicus [4]; 6.19% in the assay on Rattus norvegicus [5]; 0.72% in the assay on Rattus norvegicus [6]. Also, the results for the Activity with Rattus norvegicus [7], in the assay on Rattus norvegicus [8] and in the assay on Rattus norvegicus [9] were 72.34%, 61.96% and 70.74%, respectively.

`[O-][S+](Cc1nc(OCC(F)(F)F)c2c(-c3ccccc3)csc2n1)c1nc2ccccc2[nH]1` (configuration not stated): the Activity in the assay on Rattus norvegicus [1] is given as 45.37%; in the assay with Rattus norvegicus [2], 26.18%; in the assay with Rattus norvegicus [3], 16.93%; in the assay on Rattus norvegicus [4], 8.09%; in the assay on Rattus norvegicus [5], 0.1%; in the assay with Rattus norvegicus [6], 3.69%. In addition, the Activity in the assay with Rattus norvegicus [7] is reported as 50.53%; with Rattus norvegicus [8] it was 45.21%; in the assay on Rattus norvegicus [9], 49.46%.

Regarding `COc1ccc2[nH]c([S+]([O-])Cc3nc(OC)c4c(-c5ccccc5)csc4n3)nc2c1` (configuration not stated), the Activity is recorded as 38.6% in the assay with Rattus norvegicus [1]; 23.7% in the assay with Rattus norvegicus [2]; 17.6% in the assay with Rattus norvegicus [3]; 10.84% in the assay on Rattus norvegicus [4]; 4.02% in the assay with Rattus norvegicus [5]; 3.35% in the assay on Rattus norvegicus [6]. Further, the Activity in the assay on Rattus norvegicus [7] amounted to 52.92%; in the assay on Rattus norvegicus [8], 46.01%; in the assay with Rattus norvegicus [9] it was 47.07%.

`COc1nc(C[S+]([O-])c2nc3ccccc3[nH]2)nc2scc(-c3ccc(Cl)cc3)c12` (configuration not stated): the Activity in the assay with Rattus norvegicus [1] is on record as 51.46%; in the assay with Rattus norvegicus [2] it was 42.43%; in the assay with Rattus norvegicus [3], 32.05%; with Rattus norvegicus [4], 23.31%; in the assay on Rattus norvegicus [5], 11.17%; with Rattus norvegicus [6], 8.96%. Also, the Activity in the assay on Rattus norvegicus [7] was 69.68%; in the assay on Rattus norvegicus [8], 58.24%; in the assay with Rattus norvegicus [9], 52.65%.

As to `[O-][S+](Cc1nc(OCC(F)(F)F)c2c(-c3ccc(Cl)cc3)csc2n1)c1nc2ccccc2[nH]1` (configuration not stated), the Activity turned out to be 52.82% in the assay on Rattus norvegicus [1]; 41.76% with Rattus norvegicus [2]; 22.34% in the assay with Rattus norvegicus [3]; 32.86% with Rattus norvegicus [4]; 17.97% in the assay with Rattus norvegicus [5]; 2.03% in the assay with Rattus norvegicus [6]. The Activity amounted to 60.37% with Rattus norvegicus [7], 50.26% in the assay with Rattus norvegicus [8] and 43.08% in the assay with Rattus norvegicus [9].

As to `COc1ccc2[nH]c([S+]([O-])Cc3nc(OC)c4c(-c5ccc(Cl)cc5)csc4n3)nc2c1` (configuration not stated), the Activity with Rattus norvegicus [1] worked out at 37.92%; in the assay with Rattus norvegicus [2], 22.12%; with Rattus norvegicus [3], 5.41%; in the assay on Rattus norvegicus [4], 3.048%; with Rattus norvegicus [5], 2.25%; in the assay on Rattus norvegicus [6], 5.41%. The results for the Activity in the assay on Rattus norvegicus [7], with Rattus norvegicus [8] and in the assay on Rattus norvegicus [9] were 55.58%, 43.88% and 28.19%, respectively.

`COc1ccc2[nH]c([S+]([O-])Cc3nc(Cl)c4c5c(sc4n3)CCCC5)nc2c1` (configuration not stated): the Activity with Rattus norvegicus [1] is 48.08%; in the assay on Rattus norvegicus [2], 41.76%; with Rattus norvegicus [3], 24.37%; with Rattus norvegicus [4], 20.03%; with Rattus norvegicus [5], 11.99%; in the assay on Rattus norvegicus [6] it was 5.07%. Moreover, the values for the Activity in the assay on Rattus norvegicus [7], with Rattus norvegicus [8] and in the assay with Rattus norvegicus [9] were 59.84%, 53.98% and 44.41%, respectively.

`COc1ccc2[nH]c([S+]([O-])Cc3nc(Cl)c4c(-c5ccccc5)csc4n3)nc2c1` (configuration not stated): the Activity with Rattus norvegicus [1] came out at 40.18%; in the assay with Rattus norvegicus [2] it was 25.5%; with Rattus norvegicus [3], 20.76%; in the assay on Rattus norvegicus [4], 14.36%; with Rattus norvegicus [5], 5.54%; in the assay on Rattus norvegicus [6], 5.45%. The Activity is given as 76.32% in the assay on Rattus norvegicus [7], 68.08% in the assay on Rattus norvegicus [8] and 42.02% in the assay with Rattus norvegicus [9].

As for `COc1ccc2[nH]c([S+]([O-])Cc3nc(Cl)c4c(-c5ccc(Cl)cc5)csc4n3)nc2c1` (configuration not stated), the Activity is given as 44.01% in the assay with Rattus norvegicus [1]; 24.37% in the assay on Rattus norvegicus [2]; 18.05% in the assay with Rattus norvegicus [3]; 19.72% in the assay with Rattus norvegicus [4]; 5.91% in the assay with Rattus norvegicus [5]; 1.44% in the assay on Rattus norvegicus [6]. The figures for the Activity in the assay with Rattus norvegicus [7], with Rattus norvegicus [8] and with Rattus norvegicus [9] were 73.67%, 67.28% and 56.64%, respectively.

Regarding `COc1ccc2[nH]c([S+]([O-])Cc3ncc(C)c(OC)c3C)nc2c1` (configuration not stated) [OMEPRAZOLE], the Activity in the assay on Rattus norvegicus [1] was determined as 71.55%; with Rattus norvegicus [2], 56.65%; in the assay with Rattus norvegicus [3], 49.66%; in the assay on Rattus norvegicus [4], 62.67%; with Rattus norvegicus [5] it was 55.79%; in the assay on Rattus norvegicus [6] it was 50.9%. For the same molecule, the Activity in the assay with Rattus norvegicus [7] was 73.93%; in the assay with Rattus norvegicus [8], 63.55%; with Rattus norvegicus [9], 53.72%.

The record behind these values is ChEMBL document CHEMBL3044567, “Synthesis and biological evaluation of novel condensed pyrimidinylmethylsulfinylbenzimidazoles as antiulcer agent” (2013).
